From patent US20110136766A1, “AURORA KINASE INHIBITORS” (Vitae Pharmaceuticals, Inc., priority 2008, published 2011) come the findings set out here.

Assay [1] addresses T1, full-length human Aurora A (Homo sapiens, UniProt O14965).
T1 construct: The full-length human Aurora A carrying His6 tag at the N-terminus; His6 (N); purchased Invitrogen, Carlsbad, Calif
T1 sequence (O14965 1-403): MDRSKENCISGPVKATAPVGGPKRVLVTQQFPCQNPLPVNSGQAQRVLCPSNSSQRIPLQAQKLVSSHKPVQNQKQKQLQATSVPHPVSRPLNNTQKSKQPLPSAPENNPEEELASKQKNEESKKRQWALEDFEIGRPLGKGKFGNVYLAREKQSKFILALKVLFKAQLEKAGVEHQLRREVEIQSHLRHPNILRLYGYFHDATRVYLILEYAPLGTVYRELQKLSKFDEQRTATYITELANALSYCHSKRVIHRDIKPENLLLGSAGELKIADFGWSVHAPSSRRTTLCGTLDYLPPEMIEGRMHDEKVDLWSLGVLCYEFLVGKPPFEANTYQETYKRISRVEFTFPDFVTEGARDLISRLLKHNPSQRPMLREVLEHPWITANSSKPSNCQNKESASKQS
Briefly: Aurora A phosphocellulose filter binding kinase activity assay. The settings on record: 11 nM Aurora A, 10 μM ATP, 50 μM Kemptide, 45 min; read-out: Aur-A IC50. The assay is classed as biochemical. The method, then: (§1) Kinase activity of Aurora kinases was measured by phosphocellulose filter binding assay. The full-length human Aurora A carrying His6 tag at the N-terminus (Invitrogen, Carlsbad, Calif.) and the full-length human Aurora B (N-terminal GST fusion) co-expressed and co-purified with the His6-INCENP INBOX, aminoacids 803-918 (Carna BioSciences, Japan) were used as the enzyme in the assays. Tested compounds were diluted in DMSO and pre-incubated with the enzyme and ATP/Mg^2+ mixture for at least 10 minutes. The reaction was started by addition of the Kemptide peptide substrate (LRRASLG) and allowed to proceed for 45 min at room temperature. Each reaction in a final volume of 40 μl contained 50 μM Kemptide, 10 μM [γ-^33P]ATP (1 Ci/mmol) and either 11 nM Aurora A or 1.5 nM Aurora B/INCENP complex in the buffer containing 10 mM MgCl2, 5% DMSO, 20 mM MOPS, pH 7.2, 25 mM β-glycerol phosphate, 5 mM EGTA, 1 mM Na3VO4 and either 0.1 mg/ml of BSA and 1 mM DTT for Aurora A or 0.01% Triton-X100 and 2 mM DTT for Aurora B. The reaction was stopped with 25 μl of 5% H3PO4, and 45 μl of the mixture was transferred into a MultiScreen-PH filterplate (Millipore) pre-washed with 0.85% H3PO4. The filterplate was washed 4 times with 200 μl of 0.85% H3PO4 on a vacuum manifold. Scintillation fluid (50 μl of Ultima Gold™ LLT, PerkinElmer, Waltham, Mass.) was added to each well, and after 1-hr incubation at room temperature the plates were counted on MicroBeta (PerkinElmer, Waltham, Mass.) plate reader. […] Percent inhibition values were calculated based on the counts of the positive and negative controls, and these values were regressed against inhibitor concentration and fit into a four parameter model. From this fit the IC50 values (the inhibitor concentration at which 50% inhibition occurs) were derived as the inflection point on the semi-logarithm inhibition curve.

For assay [2], the target named is T2, full-length human Aurora B/INCENP complex (Homo sapiens, UniProt Q96GD4).
T2 construct: the full-length human Aurora B (N-terminal GST fusion); GST (N); purchased Carna BioSciences, Japan
Briefly: Aurora B phosphocellulose filter binding kinase activity assay. In kind it is biochemical. The note with it: 1.5 nM Aurora B/INCENP complex, 10 μM ATP, 50 μM Kemptide, 45 min; read-out: Aur-B IC50. Here is the method:
as §1

The test system of a further assay is Colo205. Description: CellTiter-Glo cell viability assay, Colo205. The assay is classed as cell-based. The settings on record: Homo sapiens, read-out: Colo205 IC50. From the text: (§2) The CellTiter-Glo® Luminescent Cell Viability Assay is a homogeneous method of determining the number of viable cells in culture based on quantitation of the ATP present, which signals the presence of metabolically active cells. The homogeneous assay procedure involves addition of a single reagent directly to cells cultured in serum-supplemented medium. The homogeneous format results in cell lysis and generation of a luminescent signal proportional to the amount of ATP present. The CellTiter-Glo® Assay relies on the properties of a proprietary thermostable luciferase (Ultra-Glo. Recombinant Luciferase), which generates a stable glow-type Luminescent signal. The half-life of the luminescent signal resulting from this reaction is greater than five hours. This extended half-life eliminates the need for reagent injectors and provides flexibility for continuous or batch-mode processing of multiple plates. The unique homogeneous format reduces pipetting errors that may be introduced during the multiple steps required by other ATP-measurement methods.
(§3) 96 Well cell culture plates were seeded with 10^3 mammalian cells (Colo205, HL-60, SW620, HCT116, MCF-7 and MV-411) in 100 μl culture medium. The cells were incubated overnight prior to initiating the assay. Control wells were prepared on a plate containing medium only to obtain a value for background luminescence.
(§4) Compounds to be tested were added to experimental wells and incubated for 72 hrs (Colo205, HL-60, MV-411), 168 hrs (HCT116, SW620) or 240 hrs (MCF-7). Wells were also set up to as vehicle controls with the addition of 0.1% DMSO. At the end of the incubation period, the plates were equilibrated to room temperature for approximately 30 minutes.
(§5) Lyophilized CellTiter-Glo® Substrate and the CellTiter-Glo® Buffer were warmed to room temperature. The CellTiter-Glo® Buffer was mixed with the CellTiter-Glo® Substrate to reconstitute the lyophilized enzyme/substrate mixture. This forms the CellTiter-Glo® Reagent. The contents were mixed by gently vortexing, swirling or by inverting the contents to obtain a homogeneous solution. 100 μl of CellTiter-Glo® Reagent was added to the cell culture medium present in each well. The contents were mixed for 2 minutes on an orbital shaker to induce cell lysis. The plates were allowed to incubate at room temperature for 10 minutes to stabilize luminescent signal. The contents of the 96 well cell culture plate were then transferred to a white 96 well Optiplate (Perkin Elmer). The luminescence was recorded on Wallac 1420 VICTOR^2 V Multilabel Platereader (An integration time of 0.25-1 second per well).
(§6) 10 mM DMSO stock Compounds were serially diluted threefold in DMSO. Subsequent dilutions made into cell culture media prior to addition to cells to maintain the DMSO concentration at or below 0.1% to avoid cell toxicity.
(§7) The IC50s in Table 2 are the concentration at which 50% growth inhibition relative to control occurs.

Another assay deals with HCT116. Briefly: CellTiter-Glo cell viability assay, HCT116. The assay is classed as cell-based. The settings on record: Homo sapiens, read-out: HCT116 IC50.
Description: as §2, §3, §4, §5, §6, §7

The subject of another assay is MCF-7. Briefly: CellTiter-Glo cell viability assay, MCF-7. In kind it is cell-based. The note with it: Homo sapiens, MCF7, 240 h, read-out: MCF-7 IC50.
Description: as §2, §3, §4, §5, §6, §7

Another assay has as its system HL-60. Briefly: CellTiter-Glo cell viability assay, HL-60. The assay is classed as cell-based. The settings on record: Homo sapiens, HL-60, 72 h, read-out: HL-60 IC50.
Description: as §2, §3, §4, §5, §6, §7

The next assay deals with MV-411. Briefly: CellTiter-Glo cell viability assay, MV-411. The assay is classed as cell-based. The note with it: Homo sapiens, MV4-11, 72 h, read-out: MV-411 IC50.
Description: as §2, §3, §4, §5, §6, §7

The next assay relates to SW620. Briefly: CellTiter-Glo cell viability assay, SW620. The assay is classed as cell-based. The note with it: Homo sapiens, SW-620, 168 h, read-out: SW620 IC50.
Description: as §2, §3, §4, §5, §6, §7

Setting [3] is: COLO 205, Colorectal cancer, 72 hrs, 50% growth inhibition relative to control.
Setting [4] is: HCT-116, Colorectal cancer, 168 hrs, 50% growth inhibition relative to control.

Where two headings read alike, the source gives them in different places.

T2 sequence (Q96GD4 whole entry, the tested form may be a part): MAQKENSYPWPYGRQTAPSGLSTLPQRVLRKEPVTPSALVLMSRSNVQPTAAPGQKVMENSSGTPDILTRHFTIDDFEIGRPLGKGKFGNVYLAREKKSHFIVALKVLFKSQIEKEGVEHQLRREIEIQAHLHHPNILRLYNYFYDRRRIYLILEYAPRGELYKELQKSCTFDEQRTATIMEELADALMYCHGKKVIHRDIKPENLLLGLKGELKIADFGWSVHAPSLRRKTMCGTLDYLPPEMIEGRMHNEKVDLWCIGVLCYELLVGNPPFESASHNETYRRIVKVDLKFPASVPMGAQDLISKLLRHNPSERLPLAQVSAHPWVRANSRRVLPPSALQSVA
T2 sequence (Q9NQS7 803-918 partner limits assumed): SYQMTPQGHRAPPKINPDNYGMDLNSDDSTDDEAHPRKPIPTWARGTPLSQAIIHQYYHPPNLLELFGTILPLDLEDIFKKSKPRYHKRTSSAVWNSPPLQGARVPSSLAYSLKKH

For `O=C(Cc1cc(Nc2ncnc3ccccc23)n[nH]1)Nc1cccc(F)c1` [Compound 8, N-(3-fluorophenyl)-2-(3-(quinazolin-4-ylamino)-1H-pyrazol-5-yl)acetamide], the values for the IC50 in assay [1] and in assay [2] were 2480 nM and 14.9 nM, respectively.

With `C[C@@H]1CN(C(=O)c2ccc(-c3ccc4c(Nc5cc(CC(=O)Nc6cccc(F)c6)[nH]n5)ncnc4c3)cc2)C[C@H](C)N1` [Compound 11, 2-(3-(7-(4-((3S,5R)-3,5-dimethylpiperazine-1-carbonyl)phenyl)quinazolin-4-ylamino)-1H-pyrazol-5-yl)-N-(3-fluorophenyl)acetamide], the half-inhibitory concentration (IC50) is 6.42 nM in assay [1], 1.37 nM in assay [2], 2.9 nM with Colo205 (setting [3]) and 1.62 nM in the assay on HCT116 (setting [4]).

For `O=C(Cc1cc(Nc2ncnc3cc(-c4ccc(C(=O)N5CCN(CC6CC6)CC5)cc4)ccc23)n[nH]1)Nc1cccc(F)c1` [Compound 9, 2-(3-(7-(4-(4-(Cyclopropylmethyl)piperazine-1-carbonyl)phenyl)quinazolin-4-ylamino)-1H-pyrazol-5-yl)-N-(3-fluorophenyl)acetamide], the IC50 in assay [1] turned out to be 9.51 nM; in assay [2] it was 1.88 nM; in the assay with Colo205 (setting [3]), 9.88 nM; in the assay on HCT116 (setting [4]) it was 4.38 nM.

As to `O=C(Cc1cc(Nc2ncnc3cc(-c4ccc(C(=O)N5CCN(C6CC6)CC5)cc4)ccc23)n[nH]1)Nc1cccc(F)c1` [Compound 10, 2-(3-(7-(4-(4-Cyclopropylpiperazine-1-carbonyl)phenyl)quinazolin-4-ylamino)-1H-pyrazol-5-yl)-N-(3-fluorophenyl)acetamide], the IC50 in assay [1] was found to be 4.62 nM; in assay [2], 1.23 nM; with Colo205 (setting [3]), 5.35 nM; in the assay with HCT116 (setting [4]), 1.57 nM.

Regarding `O=C(Cc1cc(Nc2ncnc3cc(-c4ccc(C(=O)N5CCN(CCO)CC5)cc4)ccc23)n[nH]1)Nc1cc(F)cc(F)c1` [Compound 14, N-(3,5-Difluorophenyl)-2-(3-(7-(4-(4-(2-hydroxyethyl)piperazine-1-carbonyl)phenyl)quinazolin-4-ylamino)-1H-pyrazol-5-yl)acetamide], the IC50 in assay [1] was determined as 2.29 nM; in assay [2], 0.83 nM; in the assay with Colo205 (setting [3]), 8.11 nM; in the assay with HCT116 (setting [4]), 5.75 nM.

On to `Cc1cc(Nc2cc(N3CCN(C)CC3)nc(Sc3ccc(NC(=O)C4CC4)cc3)n2)n[nH]1` [VX-680, reference compound], for which the IC50 in the assay on MCF-7 worked out at 31 nM; in the assay with HL-60 it was 13.8 nM; with Colo205 (COLO 205, 72 h), 30.2 nM; in the assay on MV-411, 79 nM; in the assay with SW620, 21.8 nM; in the assay on HCT116 (HCT-116, 168 h) it was 18 nM.

Regarding `CCN(CCO)CCCOc1ccc2c(Nc3cc(CC(=O)Nc4cccc(F)c4)[nH]n3)ncnc2c1` [AZD1152HQPA, reference compound], the IC50 in the assay with MCF-7 was found to be 60.7 nM; with HL-60, 7.16 nM; in the assay on Colo205 (COLO 205, 72 h), 23 nM; in the assay with MV-411 it was 16.5 nM; with SW620 it was 20.9 nM; in the assay with HCT116 (HCT-116, 168 h) it was 14.3 nM.

Consider `O=C(Cc1cc(Nc2ncnc3cc(-c4ccc(C(=O)N5CCN(CCO)CC5)cc4)ccc23)n[nH]1)Nc1cccc(F)c1F` [Compound 15, N-(2,3-Difluorophenyl)-2-(3-(7-(4-(4-(2-hydroxyethyl)piperazine-1-carbonyl)phenyl)quinazolin-4-ylamino)-1H-pyrazol-5-yl)acetamide], for which the IC50 was found to be 1.89 nM in assay [1], 0.63 nM in assay [2], 3.07 nM in the assay on Colo205 (setting [3]) and 1.71 nM in the assay on HCT116 (setting [4]).

For the compound `CN1CCN(S(=O)(=O)c2ccc(-c3ccc4c(Nc5cc(CC(=O)Nc6cccc(F)c6)[nH]n5)ncnc4c3)cc2)CC1` [Compound 7, N-(3-fluorophenyl)-2-(3-(7-(4-(4-methylpiperazin-1-ylsulfonyl)phenyl)quinazolin-4-ylamino)-1H-pyrazol-5-yl)acetamide], the IC50 turned out to be 13.9 nM in assay [1] and 0.93 nM in assay [2].

For `O=C(Cc1cc(Nc2ncnc3cc(-c4ccc(C(=O)N5CCN(CCF)CC5)cc4)ccc23)n[nH]1)Nc1cccc(F)c1` [Compound 12, 2-(3-(7-(4-(4-(2-Fluoroethyl)piperazine-1-carbonyl)phenyl)quinazolin-4-ylamino)-1H-pyrazol-5-yl)-N-(3-fluorophenyl)acetamide], the IC50 in assay [1] amounted to 2.86 nM; in assay [2], 0.74 nM; with Colo205 (setting [3]), 7.82 nM; in the assay with HCT116 (setting [4]), 3.98 nM.

Take `O=C(Cc1cc(Nc2ncnc3cc(-c4ccc(C(=O)N5CCN(CCOP(=O)(O)O)CC5)cc4)ccc23)n[nH]1)Nc1cccc(F)c1` [Compound 13, 2-(4-(4-(4-(5-(2-(3-Fluorophenylamino)-2-oxoethyl)-1H-pyrazol-3-ylamino)quinazolin-7-yl)benzoyl)piperazin-1-yl)ethyl dihydrogen phosphate]: the IC50 in assay [1] was 1.91 nM; in assay [2] it was 0.34 nM; in the assay on Colo205 (setting [3]) it was 9.39 nM; in the assay on HCT116 (setting [4]), 6.43 nM.
